Reference: PubChem BioAssay (NCI)
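Exposure lasted 48 hours, with cells grown in 96-well plates and compounds tested at five concentrations. TGI is the concentration that stops growth completely.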

Columns and labels:
Experiment in all cases: NCI anticancer screen, dose series, 48 h
OVCAR-3 ovarian = system: OVCAR-3 ovarian
RXF 393 renal = system: RXF 393 renal
MCF7 breast = system: MCF7 breast
SNB-75 CNS = system: SNB-75 CNS
NCI-H460 lung = system: NCI-H460 lung
DU-145 prostate = system: DU-145 prostate
M14 melanoma = system: M14 melanoma
COLO 205 colon = system: COLO 205 colon
U251 CNS = system: U251 CNS
ACHN renal = system: ACHN renal
T-47D breast = system: T-47D breast
CCRF-CEM leukemia = system: CCRF-CEM leukemia
SN12C renal = system: SN12C renal
SK-OV-3 ovarian = system: SK-OV-3 ovarian
SW-620 colon = system: SW-620 colon
SK-MEL-2 melanoma = system: SK-MEL-2 melanoma
BT-549 breast = system: BT-549 breast
MDA-MB-435 = system: MDA-MB-435
A549 NSCLC = system: A549 NSCLC
OVCAR-4 ovarian = system: OVCAR-4 ovarian
NCI-H23 lung = system: NCI-H23 lung
OVCAR-8 ovarian = system: OVCAR-8 ovarian
HOP-62 NSCLC = system: HOP-62 NSCLC
786-0 renal = system: 786-0 renal
UACC-257 melanoma = system: UACC-257 melanoma
IGROV1 ovarian = system: IGROV1 ovarian
HCT-15 colon = system: HCT-15 colon
HCC-2998 colon = system: HCC-2998 colon
RPMI-8226 leukemia = system: RPMI-8226 leukemia
SNB-19 CNS = system: SNB-19 CNS
SK-MEL-5 melanoma = system: SK-MEL-5 melanoma
SF-295 CNS = system: SF-295 CNS
SF-539 CNS = system: SF-539 CNS
MDA-N = system: MDA-N
SK-MEL-28 melanoma = system: SK-MEL-28 melanoma
HT29 colon = system: HT29 colon
PC-3 prostate = system: PC-3 prostate
OVCAR-5 ovarian = system: OVCAR-5 ovarian
LOX IMVI melanoma = system: LOX IMVI melanoma
KM12 colon = system: KM12 colon
NCI-H226 lung = system: NCI-H226 lung
TK-10 renal = system: TK-10 renal
EKVX NSCLC = system: EKVX NSCLC
SF-268 CNS = system: SF-268 CNS
UACC-62 melanoma = system: UACC-62 melanoma
HS 578T breast = system: HS 578T breast
CAKI-1 renal = system: CAKI-1 renal
HCT-116 colon = system: HCT-116 colon
HOP-92 NSCLC = system: HOP-92 NSCLC
K-562 leukemia = system: K-562 leukemia
MDA-MB-231 breast = system: MDA-MB-231 breast
NCI/ADR-RES ovarian = system: NCI/ADR-RES ovarian
HL-60(TB) leukemia = system: HL-60(TB) leukemia
UO-31 renal = system: UO-31 renal
NCI-H522 lung = system: NCI-H522 lung
SR leukemia = system: SR leukemia
A498 renal = system: A498 renal
MALME-3M melanoma = system: MALME-3M melanoma

SMILES: Cc1cccc(C)c1NC(=S)/N=C/C1=C(O)c2ccccc2C1=O
- TGI (OVCAR-3 ovarian): > 100 µM
- TGI (RXF 393 renal): > 100 µM
- TGI (MCF7 breast): > 100 µM
- TGI (SNB-75 CNS): 51.4 µM
- TGI (NCI-H460 lung): > 100 µM
- TGI (DU-145 prostate): > 100 µM
- TGI (M14 melanoma): > 100 µM
- TGI (COLO 205 colon): > 40.4 µM
- TGI (U251 CNS): > 100 µM
- TGI (ACHN renal): > 100 µM
- TGI (T-47D breast): > 100 µM
- TGI (CCRF-CEM leukemia): > 100 µM
- TGI (SN12C renal): > 100 µM
- TGI (SK-OV-3 ovarian): > 29.3 µM
- TGI (SW-620 colon): > 100 µM
- TGI (SK-MEL-2 melanoma): > 83.3 µM
- TGI (BT-549 breast): > 28.8 µM
- TGI (MDA-MB-435): > 80.1 µM
- TGI (A549 NSCLC): > 100 µM
- TGI (OVCAR-4 ovarian): > 65.4 µM
- TGI (NCI-H23 lung): 59.2 µM
- TGI (OVCAR-8 ovarian): > 100 µM
- TGI (HOP-62 NSCLC): > 100 µM
- TGI (786-0 renal): > 100 µM
- TGI (UACC-257 melanoma): > 88.5 µM
- TGI (IGROV1 ovarian): > 79.4 µM
- TGI (HCT-15 colon): > 100 µM
- TGI (HCC-2998 colon): > 100 µM
- TGI (RPMI-8226 leukemia): 31 µM
- TGI (SNB-19 CNS): > 100 µM
- TGI (SK-MEL-5 melanoma): 29.3 µM
- TGI (SF-295 CNS): > 100 µM
- TGI (SF-539 CNS): > 59.9 µM
- TGI (MDA-N): > 95.5 µM
- TGI (SK-MEL-28 melanoma): > 100 µM
- TGI (HT29 colon): > 79.2 µM
- TGI (PC-3 prostate): > 100 µM
- TGI (OVCAR-5 ovarian): > 100 µM
- TGI (LOX IMVI melanoma): > 100 µM
- TGI (KM12 colon): > 100 µM
- TGI (NCI-H226 lung): > 100 µM
- TGI (TK-10 renal): > 81.2 µM
- TGI (EKVX NSCLC): > 94.4 µM
- TGI (SF-268 CNS): > 100 µM
- TGI (UACC-62 melanoma): > 70.8 µM
- TGI (HS 578T breast): > 100 µM
- TGI (CAKI-1 renal): 68.9 µM
- TGI (HCT-116 colon): > 59.8 µM
- TGI (HOP-92 NSCLC): > 65.8 µM
- TGI (K-562 leukemia): > 100 µM
- TGI (MDA-MB-231 breast): > 100 µM
- TGI (NCI/ADR-RES ovarian): > 100 µM
- TGI (HL-60(TB) leukemia): > 100 µM
- TGI (UO-31 renal): > 86.1 µM
- TGI (NCI-H522 lung): 17.9 µM
- TGI (SR leukemia): 8.19 µM

SMILES: COc1cc2cc(C(=O)N3CC(COS(C)(=O)=O)c4c3cc([N+](=O)[O-])c3ccccc43)[nH]c2c(OC)c1OC (stereo unspecified)
- TGI (OVCAR-3 ovarian): > 31.6 µM
- TGI (RXF 393 renal): > 100 µM
- TGI (MCF7 breast): > 31.6 µM
- TGI (SNB-75 CNS): > 31.6 µM
- TGI (NCI-H460 lung): > 31 µM
- TGI (DU-145 prostate): > 22.4 µM
- TGI (M14 melanoma): > 31.6 µM
- TGI (COLO 205 colon): > 100 µM
- TGI (U251 CNS): > 31.6 µM
- TGI (A498 renal): 53 µM
- TGI (ACHN renal): > 31.6 µM
- TGI (T-47D breast): > 31.6 µM
- TGI (CCRF-CEM leukemia): > 31.6 µM
- TGI (SN12C renal): > 100 µM
- TGI (SK-OV-3 ovarian): > 100 µM
- TGI (SW-620 colon): > 31.6 µM
- TGI (SK-MEL-2 melanoma): > 31.6 µM
- TGI (BT-549 breast): > 31.6 µM
- TGI (MDA-MB-435): > 31.6 µM
- TGI (A549 NSCLC): > 31.6 µM
- TGI (OVCAR-4 ovarian): > 31.6 µM
- TGI (NCI-H23 lung): > 31.6 µM
- TGI (OVCAR-8 ovarian): > 31.6 µM
- TGI (HOP-62 NSCLC): > 31.6 µM
- TGI (UACC-257 melanoma): > 31.6 µM
- TGI (IGROV1 ovarian): > 31.6 µM
- TGI (HCT-15 colon): > 31.6 µM
- TGI (HCC-2998 colon): > 31.6 µM
- TGI (RPMI-8226 leukemia): > 31.6 µM
- TGI (SNB-19 CNS): > 31.6 µM
- TGI (SF-295 CNS): > 31.6 µM
- TGI (SF-539 CNS): > 31.6 µM
- TGI (MDA-N): > 100 µM
- TGI (SK-MEL-28 melanoma): > 31.6 µM
- TGI (HT29 colon): > 31.6 µM
- TGI (PC-3 prostate): > 31.6 µM
- TGI (OVCAR-5 ovarian): > 31.6 µM
- TGI (LOX IMVI melanoma): > 100 µM
- TGI (KM12 colon): > 31.6 µM
- TGI (NCI-H226 lung): > 100 µM
- TGI (TK-10 renal): > 31.6 µM
- TGI (EKVX NSCLC): > 31.6 µM
- TGI (SF-268 CNS): > 31.6 µM
- TGI (UACC-62 melanoma): > 31.6 µM
- TGI (HS 578T breast): > 31.6 µM
- TGI (CAKI-1 renal): > 50 µM
- TGI (HCT-116 colon): 15.6 µM
- TGI (HOP-92 NSCLC): > 31.6 µM
- TGI (K-562 leukemia): > 100 µM
- TGI (MDA-MB-231 breast): > 100 µM
- TGI (NCI/ADR-RES ovarian): > 31.6 µM
- TGI (UO-31 renal): > 31.6 µM
- TGI (NCI-H522 lung): > 31.6 µM

SMILES: Nc1nc(Nc2ccc(Cl)cc2)sc1C(=O)c1cc2ccccc2oc1=O
- TGI (OVCAR-3 ovarian): 38.6 µM
- TGI (RXF 393 renal): > 100 µM
- TGI (MCF7 breast): > 100 µM
- TGI (SNB-75 CNS): 68.8 µM
- TGI (NCI-H460 lung): > 100 µM
- TGI (DU-145 prostate): > 100 µM
- TGI (M14 melanoma): > 100 µM
- TGI (COLO 205 colon): > 100 µM
- TGI (U251 CNS): > 100 µM
- TGI (A498 renal): 93.7 µM
- TGI (ACHN renal): > 100 µM
- TGI (T-47D breast): > 100 µM
- TGI (CCRF-CEM leukemia): > 100 µM
- TGI (SN12C renal): > 100 µM
- TGI (SK-OV-3 ovarian): > 100 µM
- TGI (SW-620 colon): > 100 µM
- TGI (SK-MEL-2 melanoma): 75.8 µM
- TGI (BT-549 breast): > 100 µM
- TGI (MDA-MB-435): > 100 µM
- TGI (A549 NSCLC): > 100 µM
- TGI (OVCAR-4 ovarian): > 100 µM
- TGI (MALME-3M melanoma): 76.8 µM
- TGI (NCI-H23 lung): 89.5 µM
- TGI (HOP-62 NSCLC): 42.7 µM
- TGI (786-0 renal): > 100 µM
- TGI (UACC-257 melanoma): > 100 µM
- TGI (IGROV1 ovarian): > 100 µM
- TGI (HCT-15 colon): > 100 µM
- TGI (HCC-2998 colon): > 100 µM
- TGI (RPMI-8226 leukemia): > 100 µM
- TGI (SNB-19 CNS): > 100 µM
- TGI (SK-MEL-5 melanoma): > 100 µM
- TGI (SF-539 CNS): > 100 µM
- TGI (MDA-N): > 100 µM
- TGI (SK-MEL-28 melanoma): > 100 µM
- TGI (HT29 colon): > 100 µM
- TGI (PC-3 prostate): > 100 µM
- TGI (OVCAR-5 ovarian): > 100 µM
- TGI (LOX IMVI melanoma): > 100 µM
- TGI (KM12 colon): > 100 µM
- TGI (NCI-H226 lung): > 100 µM
- TGI (TK-10 renal): > 100 µM
- TGI (SF-268 CNS): > 100 µM
- TGI (UACC-62 melanoma): > 100 µM
- TGI (HS 578T breast): > 100 µM
- TGI (HCT-116 colon): > 100 µM
- TGI (HOP-92 NSCLC): > 100 µM
- TGI (K-562 leukemia): > 100 µM
- TGI (MDA-MB-231 breast): > 100 µM
- TGI (NCI/ADR-RES ovarian): > 100 µM
- TGI (HL-60(TB) leukemia): > 100 µM
- TGI (UO-31 renal): > 100 µM
